Source: US4569915A, “P. obtusus strain” (Cetus Corporation, priority 1984, dated 1986)

Key:
L. betulinus P2O = test: Relative activities of L. betulinus P2O on pyranose substrates; assay type: biochemical; settings: 20 mM substrate; D-glucose = 100
Experimental: The resulting clear yellow supernatant was further purified using DEAE chromatography in 30 mM TRIS-HCl, pH 8.5, and eluted from the 5×16 cm column using a 0-300 mM NaCl gradient. The protein eluted at about 75 mM NaCl. Fractions containing the peak of P2O activity were pooled and concentrated to 0.5 ml by Amicon PM30 ultrafiltration, and then fractionated, according to native molecular weight, using a 1.5×95 cm Biogel P300 column. The column was run at a flow rate of 0.1 ml per minute, using 100 mM sodium phosphate, pH 7.0. The protein eluted in a fraction corresponding to an apparent native molecular weight of about 300,000 daltons. […] Based on the molecular weight data, the protein appears to be a homotetramer.
The enzyme contains a covalently attached flavin on each subunit, and has absorption maxima at 275, 360, and 450 nm. The relative activities of the purified enzyme on the pyranose substrates D-glucose, L-sorbose, D-xylose and delta-D-gluconolactone are 100: 43: 43: 26, respectively, at 20 mM substrate concentration. The enzyme has a broad pH optimum between about 5 and 6.

C. versicolor P2O = biological target: T1, C. versicolor P2O (Trametes versicolor, UniProt P79076); test: Relative activities of C. versicolor P2O on pyranose substrates; assay type: biochemical; settings: 1% (w/v) substrate; D-glucose = 100
T1 construct: A single band having a molecular weight of about 65,000 was observed when the enzyme was analyzed by SDS-PAGE; made in house; host or cells: C. versicolor itself (native producer; high-producer culture selected from NRRL 15152 / CMCC 0748)
Experimental: The enzyme was applied to a 2.6×40 cm DEAE column, washed, and eluted using a 0-300 mM NaCl gradient. The P2O elutes at about 220 mM. Portions of each fraction were assayed for P2O activity, by monitoring peroxide generation conventionally. Protein concentration was also determined by a conventional method. The fractions containing P2O activity were pooled and concentrated by ultrafiltration with an Amicon PM10 filter obtained from Amicon Corp. Peak fractions were dialyzed into 30 mM sodium acetate (pH 5.5), adjusted to 1.5M NaCl and loaded onto a phenylsepharose column. The P2O was eluted with a 0-1.5M NaCl gradient in 50 mM sodium acetate, pH 5.5. The enzyme eluted at about 1.1M NaCl. Fractions containing the peak activity were pooled and concentrated to 0.5 ml by Amicon PM30 ultrafiltration and sized according to native molecular weight using a 1.5×95 cm Biogel P300 column. Elution was at 0.1 ml/minute with 100 mM sodium phosphate, pH 7.0. Using known molecular weight markers in the column, the enzyme's apparent native molecular weight was calculated to be about 130,000 daltons. A single band having a molecular weight of about 65,000 was observed when the enzyme was analyzed by SDS-PAGE. The enzyme thus appears to be a homodimer. The enzyme was judged to be about 95% pure, based on the staining intensity of protein bands in SDS-PAGE.
The relative activities of the enzyme on the substrates D-glucose, L-sorbose, D-xylose and delta-D-gluconolactone are 100: 74: 41: 6, respectively, at 1% (w/v) substrate concentration. The enzyme has a pH optimum of about 5.0.

P. obtusus P2O = test: Relative activities of P. obtusus P2O on pyranose substrates; assay type: biochemical; settings: about 1% (w/v) substrate; D-glucose = 100
Experimental: The P2O enzyme preparation from Example II was purified further using DEAE chromatography in 30 mM TRIS-HCl, pH 8.5, containing 2 mM EDTA and 10 ug/ml PMSF. The sample was eluted from a 5×16 cm column using a gradient of 0-300 mM NaCl. P2O activity was monitored using the orthodianisidine colorometric assay for the peroxide co-product, essentially as described by Ruelius et al., Biochim et Biophys. Acta 167, 493-500 (1968). P2O activity eluted at about 50 mM NaCl. Fractions containing the peak activity were pooled and concentrated to 0.5 ml by ultrafiltration using Amicon filters obtained from Amicon Corp. (Danvers, MA). Biogel P300 was obtained from Biorad Laboratories (Richmond, CA). The sample was further purified by molecular sieve chromatography using a 1.5×95 cm Biogel P300 column in 100 mM sodium phosphate, pH 7 buffer. The P2O activity eluted at a sharp peak corresponding to an apparent native molecular weight of about 290,000 daltons.
The enzyme appears to contain one covalently bound flavin molecule per subunit (detectable as UV-fluorescence in the 68,000 dalton SDS-PAGE band), and has absorption maxima at 276, 357 and 456 nm. The enzyme has a sedimentation coefficient of about 11.4, as determined by sucrose gradient ultracentrifugation. The relative activities of the enzyme, on D-glucose, L-sorbose, D-xylose, and D-gluconolactone are 100: 80: 48: 12, respectively, at about 1% (w/v) substrate concentration. As noted above with respect to FIG. 2, the enzyme has a broad pH optimum of between about 4.5 and 5.5.

[1] = Nonenzymatic breakdown of glucosone (UV scan); assay type: physicochemical; settings: 0.5% solution
Text: Secondly, studies indicate that pure glucosone undergoes relatively rapid, nonenzymatic breakdown above a pH of about 7.0. In one experiment, a 0.5% solution of highly purified glucosone (prepared by enzymatic conversion of glucose by a purified P. obtusus P2O enzyme at pH 4.4) was brought to pH 7.0 in a buffered solution. Immediately thereafter, the solution was scanned spectrophotometrically in the UV range between 200 and 350 nm, at one minute intervals.

[2] = Glucosone breakdown on control of reaction pH by base addition; assay type: physicochemical; settings: NaOH versus buffer such as 1M sodium bicarbonate or 1M TRIS-HCl
Experimental: Attempts to control reaction pH by the periodic addition of base have not been entirely successful. […] Therefore, in order to reduce glucosone breakdown, the base must be added in a manner which minimizes local regions of high pH in the solution. […] Introduction of the buffer with rapid mixing further reduces glucosone breakdown, presumably by reducing locally-elevated pH levels which occur when the buffer is added. It was noted above that even pH's in the range of 7.0 can lead to relatively rapid nonenzymatic glucosone breakdown. Ideally therefore, where high purity and yield are desired, one would like to avoid adding base to the reaction to offset the buildup of acidic by-products.

[3] = Ericsson et al. and Lindberg et al.; cited from earlier work

Compound	relative activity of L. betulinus P2O on substrate (L. betulinus P2O)	relative activity of C. versicolor P2O on substrate (C. versicolor P2O)	relative activity of P. obtusus P2O on substrate (P. obtusus P2O)	310 nm peak (nonenzymatic breakdown) ([1]; pH 6.0, several minutes)	increase of 310 nm peak (nonenzymatic breakdown) ([1]; pH 7.0, five minute period)	glucosone breakdown with periodic NaOH addition [2]	stability under alkaline conditions [3]
OC[C@H]1OC(O)[C@H](O)[C@@H](O)[C@@H]1O (stereo partly drawn) [D-glucose]	100	100	100	–	–	–	–
OC1OC[C@@H](O)[C@H](O)[C@H]1O (stereo partly drawn) [D-xylose]	43	41	48	–	–	–	–
O=C(CO)[C@@H](O)[C@H](O)[C@@H](O)CO [L-sorbose]	43	74	80	–	–	–	–
O=C1O[C@H](CO)[C@@H](O)[C@H](O)[C@H]1O [delta-D-gluconolactone]	26	6	12	–	–	–	–
O=CC(=O)[C@@H](O)[C@H](O)[C@H](O)CO [glucosone, D-arabino-2-hexosulose]	–	–	–	no initial peak at 310 nm was observed nor did one form	increasing several-fold	more glucosone breakdown	breaks down under alkaline conditions
